Test results from ChEMBL document CHEMBL3046665, “In vitro cytotoxicity, antimicrobial, and metal-chelating activity of triterpene saponins from tea seed grown in Kangra valley, India” (Med Chem Res, 2013).
Structures can show the parent of a compound that is named as a salt.

Assays:
Type in all cases: functional
[1] = tested on: PC-3; test: Cytotoxicity against Homo sapiens (human) PC3 cells assessed as growth inhibition at 1 uM after 48 hr by SRB assay; conditions: PC-3, 48 h, read-out: GI
[2] = tested on: COLO 205; test: Cytotoxicity against Homo sapiens (human) COLO205 cells assessed as growth inhibition at 1uM after 48 hr by SRB assay; conditions: COLO 205, 48 h, read-out: GI
[3] = tested on: MCF7; test: Cytotoxicity against Homo sapiens (human) MCF7 cells assessed as growth inhibition at 1 uM after 48 hr by SRB assay; conditions: MCF7, 48 h, read-out: GI
[4] = tested on: OVCAR-5; test: Cytotoxicity against Homo sapiens (human) OVCAR5 cells assessed as growth inhibition at 1 uM after 48 hr by SRB assay; conditions: OVCAR-5, 48 h, read-out: GI

| Compound | inhibition of growth at 1 µM [1] [%] | inhibition of growth at 1 µM [2] [%] | inhibition of growth at 1 µM [3] [%] | inhibition of growth at 1 µM [4] [%] |
| --- | --- | --- | --- | --- |
| COc1cccc2c1C(=O)c1c(O)c3c(c(O)c1C2=O)C[C@@](O)(C(=O)CO)C[C@@H]3O[C@H]1C[C@H](N)[C@H](O)[C@H](C)O1 [DOXORUBICIN HYDROCHLORIDE] | 66 | 69 | 72 | 60 |
| CC(=O)O[C@H]1C(=O)[C@@]2(C)[C@H]([C@H](OC(=O)c3ccccc3)[C@]3(O)C[C@H](OC(=O)[C@H](O)[C@@H](NC(=O)c4ccccc4)c4ccccc4)C(C)=C1C3(C)C)[C@]1(OC(C)=O)CO[C@@H]1C[C@@H]2O [PACLITAXEL] | 71 | 57 | 80 | 73 |
